Source: patent US20210238139A1, “MODULATORS OF TRYPTOPHAN CATABOLISM” (E-Therapeutics PLC, priority 2018, published 2021)

Test system: SK-OV-3 cells
Experiment: Effect of compounds on tryptophan catabolism in SK-OV-3 cell line (inhibition of kynurenine production, LC-MS/MS)
Type: cell-based
Conditions: Homo sapiens, SK-OV-3, 24 h, SK-OV-3 cell line, 24 h incubation, kynurenine in supernatant by LC-MS/MS; read-out: IC50 Ranges (ic50 values for inhibition of Kynurenine production)
Summary of the method: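 Kynurenine in supernatants quantified by LC-MS/MS after 24 h compound exposure (37 °C; top 30 μM, eight 3-fold steps, duplicate) in DMEM F-12 containing 6 mg/mL L-tryptophan. Cells pre-plated overnight in McCoy's 5A with 10% FBS. Viability checked in parallel by ATP luminescence.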

SMILES | IC50 [nM]
Cc1ccc(CN(C(=O)Nc2ccc(C#N)cc2)c2ncnn2C)o1 [Compound 266, 3-(4-cyanophenyl)-1-[(5-methyl-2-furyl)methyl]-1-(2-methyl-1,2,4-triazol-3-yl) urea] | 1000 to 5000
Cc1ccc(CN(C(=O)Nc2ccc(Cl)cc2)c2cnnn2C)o1 [Compound 267, 3-(4-chlorophenyl)-1-[(5-methyl-2-furyl)methyl]-1-(3-methyltriazol-4-yl)urea] | 100 to 500
Cc1ccc(CN(C(=O)Nc2ccc(C#N)cc2)c2cnnn2C)o1 [Compound 268, 3-(4-cyanophenyl)-1-[(5-methyl-2-furyl)methyl]-1-(3-methyltriazol-4-yl)urea] | 500 to 1000
N#Cc1ccc(NC(=O)N(Cc2ccn3ccnc3n2)C2CCC2)cc1 [Compound 274, 3-(4-cyanophenyl)-1-cyclobutyl-1-(imidazo[1,2-a]pyrimidin-7-ylmethyl)urea] | 1000 to 5000
Cc1ccc(CN(C(=O)Nc2ccc(C#N)cc2)c2conc2C)o1 [Compound 278, 3-(4-cyanophenyl)-1-[(5-methyl-2-furyl)methyl]-1-(3-methylisoxazol-4-yl)urea] | < 100
Cn1nccc1N(Cc1ccc2ncsc2c1)C(=O)Nc1ccc(C#CCO)cc1 [Compound 280, 1-(1,3-benzothiazol-6-ylmethyl)-3-[4-(3-hydroxyprop-1-ynyl)phenyl]-1-(2-methylpyrazol-3-yl)urea] | 1000 to 5000
Cc1oncc1N(Cc1ccc2scnc2c1)C(=O)Nc1ccc(C#N)cc1 [Compound 281, 1-(1,3-benzothiazol-5-ylmethyl)-3-(4-cyanophenyl)-1-(5-methylisoxazol-4-yl)urea] | 1000 to 5000
Cc1ccc(CN(C(=O)Nc2ccc(Cl)cc2)c2ccccn2)o1 [Compound 282, 3-(4-chlorophenyl)-1-[(5-methyl-2-furyl)methyl]-1-(2-pyridyl)urea] | 500 to 1000
COc1ccc(NC(=O)N(Cc2ccc(C)o2)C2CCCC2)cc1 [Compound 290, 1-cyclopentyl-3-(4-methoxyphenyl)-1-[(5-methyl-2-furyl)methyl]urea] | 100 to 500
Cc1oncc1N(Cc1cccc(C(F)(F)F)c1)C(=O)Nc1ccc(C#N)cc1 [Compound 293, 3-(4-cyanophenyl)-1-(5-methylisoxazol-4-yl)-1-[[3-(trifluoromethyl)phenyl]methyl]urea] | 100 to 500
CCc1ccc(CN(C(=O)Nc2ccc(C#N)cc2)C2CCCC2)o1 [Compound 295, 3-(4-cyanophenyl)-1-cyclopentyl-1-[(5-ethyl-2-furyl)methyl]urea] | < 100
O=C(Nc1ccc(C#CCO)cc1)N(Cc1ccnc(C(F)(F)F)c1)C1CCC1 [Compound 296, 1-cyclobutyl-3-[4-(3-hydroxyprop-1-ynyl)phenyl]-1-[[2-(trifluoromethyl)-4-pyridyl]methyl]urea] | 100 to 500
Cc1ccc(CN(C(=O)Nc2ccc(Cl)cc2)c2nonc2C)o1 [Compound 298, 3-(4-chlorophenyl)-1-[(5-methyl-2-furyl)methyl]-1-(4-methyl-1,2,5-oxadiazol-3-yl)urea] | < 100
CCc1ccc(CN(C(=O)Nc2ccc(C#N)cc2)c2cnoc2C)o1 [Compound 299, 3-(4-cyanophenyl)-1-[(5-ethyl-2-furyl)methyl]-1-(5-methylisoxazol-4-yl)urea] | 100 to 500
Cc1ccc(CN(C(=O)Nc2ccc(OC(F)F)cc2)c2cnoc2C)o1 [Compound 301, 3-[4-(difluoromethoxy)phenyl]-1-[(5-methyl-2-furyl)methyl]-1-(5-methylisoxazol-4-yl)urea] | < 100
Cc1ccc(CN(C(=O)Nc2ccc(C#N)cc2)c2cnoc2)o1 [Compound 304, 3-(4-cyanophenyl)-1-isoxazol-4-yl-1-[(5-methyl-2-furyl)methyl]urea] | 100 to 500
Cc1ccc(CN(C(=O)Nc2ccc(Cl)cc2)c2cnoc2)o1 [Compound 305, 3-(4-chlorophenyl)-1-isoxazol-4-yl-1-[(5-methyl-2-furyl)methyl]urea] | < 100
Cc1ccc(CN(C(=O)Nc2ccc3c(c2)CNC3=O)C2CCCC2)o1 [Compound 307] | > 5000
Cc1nocc1N(Cc1cccc(C(F)(F)F)c1)C(=O)Nc1ccc(-n2cc(CO)nn2)cc1 [Compound 308, 3-[4-[4-(hydroxymethyl)triazol-1-yl]phenyl]-1-(3-methylisoxazol-4-yl)-1-[[3-(trifluoromethyl)phenyl]methyl]urea] | 500 to 1000
Cc1ccc(CN(C(=O)Nc2ccc(C#CCO)cc2)c2nccn2C)o1 [Compound 309, 3-[4-(3-hydroxyprop-ynyl)phenyl]-1-[(5-methyl-2-furyl)methyl]-1-(1-methylimidazol-2-yl)urea] | 100 to 500
O=C(Nc1ccc(Cl)cc1)N(Cc1nc2c(s1)COCC2)C1CCCC1 [Compound 311, 3-(4-chlorophenyl)-1-cyclopentyl-1-(6,7-dihydro-4H-pyrano[4,3-d]thiazol-2-ylmethyl)urea] | 100 to 500

Further lines, results first:

IC50 [nM] | SMILES
100 to 500 | Cc1ccc(CN(C(=O)Nc2ccc(Cl)cc2)[C@H]2C[C@@H](F)C2)o1 [Compound 271, 3-(4-chlorophenyl)-1-(3-fluorocyclobutyl)-1-[(5-methyl-2-furyl)methyl]urea]
500 to 1000 | Cc1ccc(CN(C(=O)Nc2ccc(C#N)cc2)[C@H]2C[C@H](F)C2)o1 [Compound 272, 3-(4-cyanophenyl)-1-(3-fluorocyclobutyl)-1-[(5-methyl-2-furyl)methyl]urea]
100 to 500 | Cc1ccc(CN(C(=O)Nc2ccc(Cl)cc2)[C@H]2C[C@H](F)C2)o1 [Compound 273, 3-(4-chlorophenyl)-1-(3-fluorocyclobutyl)-1-[(5-methyl-2-furyl)methyl]urea]
1000 to 5000 | O=C(Nc1ccc(Cl)cc1)N(Cc1ccn2ccnc2n1)C1CCC1 [Compound 275, 3-(4-chlorophenyl)-1-cyclobutyl-1-(imidazo[1,2-a]pyrimidin-7-ylmethyl)urea]
1000 to 5000 | Cc1ccc(CN(C(=O)Nc2ccc(C#N)cc2)c2ccccn2)o1 [Compound 283, 3-(4-cyanophenyl)-1-[(5-methyl-2-furyl)methyl]-1-(2-pyridyl)urea]
100 to 500 | Cc1ccc(CN(C(=O)Nc2ccc(Cl)cc2)C23CC(C2)C3)o1 [Compound 284, 1-(1-bicyclo[1.1.1]pentanyl)-3-(4-chlorophenyl)-1-[(5-methyl-2-furyl)methyl]urea]
100 to 500 | Cc1ccc(CN(C(=O)Nc2ccc(C#N)cc2)C23CC(C2)C3)o1 [Compound 285, 1-(1-bicyclo[1.1.1]pentanyl)-3-(4-cyanophenyl)-1-[(5-methyl-2-furyl)methyl]urea]
1000 to 5000 | Cc1ccc(CN(C(=O)Nc2ccc(Cl)cc2)C2CC3(COC3)C2)o1 [Compound 286, 3-(4-chlorophenyl)-1-[(5-methyl-2-furyl)methyl]-1-(2-oxaspiro[3.3]heptan-6-yl)urea]
> 5000 | Cc1ccc(CN(C(=O)Nc2ccc(C#N)cc2)C2CC3(COC3)C2)o1 [Compound 287, 3-(4-cyanophenyl)-1-[(5-methyl-2-furyl)methyl]-1-(2-oxaspiro[3.3]heptan-6-yl)urea]
1000 to 5000 | Cc1oncc1N(Cc1ccnc(C(F)(F)F)c1)C(=O)Nc1ccc(C#N)cc1 [Compound 288, 3-(4-cyanophenyl)-1-(5-methylisoxazol-4-yl)-1-[[2-(trifluoromethyl)-4-pyridyl]methyl]urea]
500 to 1000 | Cc1ncc(CN(C(=O)Nc2ccc(C#N)cc2)C2CCCC2)o1 [Compound 291, 3-(4-cyanophenyl)-1-cyclopentyl-1-[(2-methyloxazol-5-yl)methyl]urea]
< 100 | Cc1ncc(CN(C(=O)Nc2ccc(C#CCO)cc2)C2CCCC2)o1 [Compound 294, 1-cyclopentyl-3-[4-(3-hydroxyprop-1-ynyl)phenyl]-1-[(2-methyloxazol-5-yl)methyl]urea]
< 100 | Cc1ccc(CN(C(=O)Nc2ccc(C#CCO)cc2)C2CCC2)o1 [Compound 297, 1-cyclobutyl-3-[4-(3-hydroxyprop-1-ynyl)phenyl]-1-[(5-methyl-2-furyl)methyl]urea]
1000 to 5000 | Cc1ccc(CN(C(=O)Nc2ccc(Cl)cc2)c2nc3ccccc3s2)o1 [Compound 300, 1-(1,3-benzothiazol-2-yl)-3-(4-chlorophenyl)-1-[(5-methyl-2-furyl)methyl]urea]
1000 to 5000 | Cn1nccc1N(Cc1ccnc(C(F)(F)F)c1)C(=O)Nc1ccc(Cl)cc1 [Compound 302, 3-(4-chlorophenyl)-1-(2-methylpyrazol-3-yl)-1-[[2-(trifluoromethyl)-4-pyridyl]methyl]urea]
> 5000 | Cc1ccc(CN(C(=O)Nc2ccc(O)cc2)C2CCCC2)o1 [Compound 303, 1-cyclopentyl-3-(4-hydroxyphenyl)-1-[(5-methyl-furyl)methyl]urea]
1000 to 5000 | Cc1ccc(CN(C(=O)N(C)c2ccc(C#CCO)cc2)C2CCC2)o1 [Compound 306, 1-cyclobutyl-3-[4-(3-hydroxyprop-1-ynyl)phenyl]-3-methyl-1-[(5-methyl-2-furyl)methyl]urea]
1000 to 5000 | N#Cc1ccc(NC(=O)N(Cc2nc3c(s2)COCC3)C2CCCC2)cc1 [Compound 310, 3-(4-cyanophenyl)-1-cyclopentyl-1-(6,7-dihydro-4H-pyrano[4,3-d]thiazol-2-ylmethyl)urea]
1000 to 5000 | Cc1ccc(CN(C(=O)Nc2ccc3c(c2)CN(C)C3=O)C2CCCC2)o1 [Compound 312, 1-cyclopentyl-1-[(5-methyl-2-furyl)methyl]-3-(2-methyl-1-oxo-isoindolin-5-yl)urea]
100 to 500 | Cc1nocc1N(Cc1cccc(C#N)n1)C(=O)Nc1ccc(Cl)cc1 [Compound 313, 3-(4-chlorophenyl)-1-[(6-cyano-2-pyridyl)methyl]-1-(3-methylisoxazol-4-yl)urea]
100 to 500 | Cc1ccc(CN(C(=O)Nc2ccc(C#N)cc2)c2ncccc2C)o1 [Compound 314, 3-(4-cyanophenyl) [(5-methyl-2-furyl)methyl]-1-(3-methyl-2-pyridyl)urea]
